Experimental data as given in patent EP0568635B1, “IMPROVED GLYPHOSATE FORMULATIONS” (MONSANTO COMPANY, priority 1991, dated 1992).

System: Johnsongrass
Experiment: Greenhouse bioassay test of herbicidal activity, pot-grown weeds sprayed with a track sprayer
Type: in vivo
Details: mean of four rates (1/4, 1/2, 3/4 and 1 pound glyphosate/acre; 0.28, 0.56, 0.84 and 1.12 kg/ha), 4 weeks after treatment, 0.25 % ethoxylated amine surfactant in all spray solutions
Procedure: The results of the bioassay test of the Example 2 formulation are shown below. Roundup herbicide was used as a comparative of the prior art.
In all of the greenhouse bioassay tests provided in this specification, pot-grown weed species were sprayed with aqueous solutions of the glyphosate WSP formulations using a track sprayer calibrated to apply about 20 gallons/acre (187 liters/hectare) at about 30 psi ([…]).
WSP formulations were prepared without Witconate surfactant. The surfactant was tank mixed into the spray solutions for bioassays.

## CC(C)N.O=C(O)CNCP(=O)(O)O [Isopropylamine salt of glyphosate]
  % INHIBITION: 55.2%
